Biological target: Proteasome chymotrypsin-like activity (S26 protein from RPMI8226 cells) (Homo sapiens, UniProt P28074)
Format: biochemical
Details: S26 protein from RPMI8226 cell extract 2 ug/well, substrate 20 uM, 37° C., 90 minutes; read-out: Proteasome chymotrypsin-like activity inhibition IC50
How it was run: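 RPMI8226 myeloma cell lysate (S26 fraction, 20 mM Tris-HCl pH 8.0; 2 ug/well) incubated with compound serially diluted from 10 uM (0.5% DMSO) and 20 uM Suc-LLVY-AMC (chymotrypsin-like) or Z-LLE-AMC (caspase-like) for 90 min at 37 °C. Fluorescence read; IC50 from % of uninhibited signal.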

Sequence of Proteasome chymotrypsin-like activity (S26 protein from RPMI8226 cells) (P28074 60-263 limits assumed): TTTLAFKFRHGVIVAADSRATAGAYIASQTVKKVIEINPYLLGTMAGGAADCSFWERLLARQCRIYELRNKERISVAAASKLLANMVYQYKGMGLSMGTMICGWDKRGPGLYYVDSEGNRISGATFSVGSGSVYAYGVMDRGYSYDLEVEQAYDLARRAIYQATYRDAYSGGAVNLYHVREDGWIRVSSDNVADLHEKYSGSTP

Compound	IC50
Cc1cccc(CC2(C(=O)N[C@@H](CC(C)C)B(O)O)CC(CNC(=O)c3c(Cl)c(C)nn3C(C)C)=NO2)c1 (stereo partly drawn) [Example 244, ((1R)-1-(3-((4-chloro-1-isopropyl-3-methyl-1H-pyrazol-5-carboxamido)methyl)-5-(3-methylbenzyl)-4,5-dihydroisoxazol-5-carboxamido)-3-methylbutyl)boronic acid]	< 10 nM
CC(C)C[C@H](NC(=O)C1CC([C@@H](NC(=O)c2nccc3ccccc23)C(C)C)=NO1)B(O)O (stereo partly drawn) [Example 67, ((1R)-1-(3-((S)-1-(isoquinolin-1-carboxamido)-2-methylpropyl)-4,5-dihydroisoxazol-5-carboxamido)-3-methylbutyl)boronic acid]	< 25 nM
CC(C)C[C@H](NC(=O)C1(C(F)c2ccccc2)CC(CNC(=O)c2nccc3ccccc23)=NO1)B(O)O (stereo partly drawn) [Example 114, ((1R)-1-(5-(fluoro(phenyl)methyl)-3-((isoquinolin-1-carboxamido)methyl)-4,5-dihydroisoxazol-5-carboxamido)-3-methylbutyl)boronic acid]	< 10 nM
CC(C)C[C@H](NC(=O)C1CC(c2ccccc2OC(F)(F)F)=NO1)B(O)O (stereo partly drawn) [Example 39, ((1R)-3-methyl-1-(3-(2-(trifluoromethoxy)phenyl)-4,5-dihydroisoxazol-5-carboxamido)butyl)boronic acid]	< 500 nM
CC(C)C[C@H](NC(=O)C1CC(C(=O)Nc2cccc(Cl)c2)=NO1)B(O)O (stereo partly drawn) [Example 77, ((1R)-1-(3-((3-chlorophenyl)carbamoyl)-4,5-dihydroisoxazol-5-carboxamido)-3-methylbutyl)boronic acid]	< 250 nM
COCC1(C(=O)N[C@@H](CC(C)C)B(O)O)CC(CNC(=O)c2nccc3ccccc23)=NO1 (stereo partly drawn) [Example 192, ((1R)-1-(3-((isoquinolin-1-carboxamido)methyl)-5-(methoxymethyl)-4,5-dihydroisoxazol-5-carboxamido)-3-methylbutyl)boronic acid]	< 10 nM
CC(C)C[C@H](NC(=O)C1CC(C(=O)Nc2cccc3ccccc23)=NO1)B(O)O (stereo partly drawn) [Example 76, ((1R)-3-methyl-1-(3-(naphthalen-1-ylcarbamoyl)-4,5-dihydroisoxazol-5-carboxamido)butyl)boronic acid]	< 50 nM
CC(C)C[C@H](NC(=O)C1CC(c2ccc(OC(F)(F)F)cc2)=NO1)B(O)O (stereo partly drawn) [Example 38, ((1R)-3-methyl-1-(3-(4-(trifluoromethoxy)phenyl)-4,5-dihydroisoxazol-5-carboxamido)butyl)boronic acid]	< 500 nM
CC(C)C[C@H](NC(=O)C1CC(c2cccc(-c3ccccn3)c2)=NO1)B(O)O (stereo partly drawn) [Example 34, ((1R)-3-methyl-1-(3-(3-(pyridin-2-yl)phenyl)-4,5-dihydroisoxazol-5-carboxamido)butyl)boronic acid]	< 100 nM
Cc1cccc(CC2(C(=O)N[C@@H](CC(C)C)B(O)O)CC(CNC(=O)c3cc(C)nn3C3CCCC3)=NO2)c1 (stereo partly drawn) [Example 243, ((1R)-1-(3-((1-cyclopentyl-3-methyl-1H-pyrazol-5-carboxamido)methyl)-5-(3-methylbenzyl)-4,5-dihydroisoxazol-5-carboxamido)-3-methylbutyl)boronic acid]	< 10 nM
CC(C)C[C@H](NC(=O)C1CC(c2cccc(-c3ccccc3)n2)=NO1)B(O)O (stereo partly drawn) [Example 25, ((1R)-3-methyl-1-(3-(6-phenylpyridin-2-yl)-4,5-dihydroisoxazol-5-carboxamido)butyl)boronic acid]	< 100 nM
Cc1cccc(CC2(C(=O)N[C@@H](CC(C)C)B(O)O)CC(CNC(=O)c3sc(C)nc3C)=NO2)c1 (stereo partly drawn) [Example 217, ((1R)-1-(3-((2,4-dimethylthiazol-5-carboxamido)methyl)-5-(3-methylbenzyl)-4,5-dihydroisoxazol-5-carboxamido)-3-methylbutyl)boronic acid]	< 10 nM
CC(C)C[C@H](NC(=O)C1(Cc2c(F)cccc2F)CC(CNC(=O)c2nccc3ccccc23)=NO1)B(O)O (stereo partly drawn) [Example 174, ((1R)-1-(5-(2,6-difluorobenzyl)-3-((isoquinolin-1-carboxamido)methyl)-4,5-dihydroisoxazol-5-carboxamido)-3-methylbutyl)boronic acid]	< 10 nM
CC(C)C[C@H](NC(=O)C1CC(Cc2ccccc2)=NO1)B(O)O (stereo partly drawn) [Example 8, ((1R)-1-(3-benzyl-4,5-dihydroisoxazol-5-carboxamido)-3-methylbutyl)boronic acid]	< 250 nM
CC(C)C[C@H](NC(=O)C1CC([C@@H](NC(=O)c2cccc3c2CCCC3)C(C)C)=NO1)B(O)O (stereo partly drawn) [Example 66, ((1R)-3-methyl-1-(3-((S)-2-methyl-1-(5,6,7,8-tetrahydronaphthalen-1-carboxamido)propyl)-4,5-dihydroisoxazol-5-carboxamido)butyl)boronic acid]	< 25 nM
CC(C)C[C@H](NC(=O)C12CCCC1C(CNC(=O)c1nccc3ccccc13)=NO2)B(O)O (stereo partly drawn) [Example 198, ((1R)-1-(3-((isoquinolin-1-carboxamido)methyl)-3a,5,6,6a-tetrahydro-4H-cyclopenta[d]isoxazol-6a-carboxamido)-3-methylbutyl)boronic acid]	< 100 nM
CC(C)C[C@H](NC(=O)C1CC(c2cccc(OCc3ccccn3)c2)=NO1)B(O)O (stereo partly drawn) [Example 43, ((1R)-3-methyl-1-(3-(3-(pyridin-2-ylmethoxy)phenyl)-4,5-dihydroisoxazol-5-carboxamido)butyl)boronic acid]	< 250 nM

Further lines, results first:

IC50	Compound
< 10 nM	COc1cccc(CC2(C(=O)N[C@@H](CC(C)C)B(O)O)CC(CNC(=O)c3cc(-c4ccccc4)nn3C(C)C)=NO2)c1 (stereo partly drawn) [Example 230, ((1R)-1-(3-((1-isopropyl-3-phenyl-1H-pyrazol-5-carboxamido)methyl)-5-(3-methoxybenzyl)-4,5-dihydroisoxazol-5-carboxamido)-3-methylbutyl)boronic acid]
< 10 nM	CC[C@H](NC(=O)C1(Cc2ccccc2)CC(CNC(=O)c2cc(Cl)ccc2Cl)=NO1)B(O)O (stereo partly drawn) [Example 314, ((1R)-1-(5-benzyl-3-((2,5-dichlorobenzamido)methyl)-4,5-dihydroisoxazol-5-carboxamido)propyl)boronic acid]
< 10 nM	CC(C)C[C@H](NC(=O)C1(Cc2ccccc2)CC(CNC(=O)c2cc(F)cnc2Cl)=NO1)B(O)O (stereo partly drawn) [Example 164, ((1R)-1-(5-benzyl-3-((2-chloro-5-fluoronicotinamido)methyl)-4,5-dihydroisoxazol-5-carboxamido)-3-methylbutyl)boronic acid]
< 10 nM	CC(C)[C@H](NC(=O)C1(Cc2ccccc2)CC(CNC(=O)c2cccc3ccccc23)=NO1)B(O)O (stereo partly drawn) [Example 304, ((1R)-1-(3-((1-naphthamido)methyl)-5-benzyl-4,5-dihydroisoxazol-5-carboxamido)-2-methylpropyl)boronic acid]
< 50 nM	CC(C)C[C@H](NC(=O)C1(Cc2ccccc2)CC(COCc2cccc(Cl)c2)=NO1)B(O)O (some centres unmarked) [Example 260]
< 10 nM	Cc1cc(C(=O)NCC2=NOC(Cc3ccccc3)(C(=O)N[C@@H](CC(C)C)B(O)O)C2)n(-c2ccccn2)n1 (stereo partly drawn) [Example 213, ((1R)-1-(5-benzyl-3-((3-methyl-1-(pyridin-2-yl)-1H-pyrazol-5-carboxamido)methyl)-4,5-dihydroisoxazol-5-carboxamido)-3-methylbutyl)boronic acid]
< 10 nM	CC(C)C[C@H](NC(=O)C1(Cc2cccc(Cl)c2)CC(CNC(=O)c2nccc3ccccc23)=NO1)B(O)O (stereo partly drawn) [Example 175, ((1R)-1-(5-(3-chlorobenzyl)-3-((isoquinolin-1-carboxamido)methyl)-4,5-dihydroisoxazol-5-carboxamido)-3-methylbutyl)boronic acid]
< 10 nM	CC[C@H](NC(=O)C1(Cc2ccccc2)CC(CNC(=O)c2cccc3ccccc23)=NO1)B(O)O (stereo partly drawn) [Example 303, ((1R)-1-(3-((1-naphthamido)methyl)-5-benzyl-4,5-dihydroisoxazol-5-carboxamido)propyl)boronic acid]
< 10 nM	CC(C)C[C@H](NC(=O)C1(Cc2cccc(OC(F)(F)F)c2)CC(CNC(=O)c2nccc3ccccc23)=NO1)B(O)O (stereo partly drawn) [Example 216, ((1R)-1-(3-((isoquinolin-1-carboxamido)methyl)-5-(3-(trifluoromethoxy)benzyl)-4,5-dihydroisoxazol-5-carboxamido)-3-methylbutyl)boronic acid]
< 10 nM	CC(C)C[C@H](NC(=O)C1(Cc2ccccc2)CC(COCc2cccn3ccnc23)=NO1)B(O)O (some centres unmarked) [Example 266]
< 25 nM	COc1ccccc1-c1cccc(COCC2=NOC(Cc3ccccc3)(C(=O)N[C@@H](CC(C)C)B(O)O)C2)c1 (stereo partly drawn) [Example 58, [(1R)-1-[[5-benzyl-3-[[3-(2-methoxyphenyl)phenyl]methoxymethyl]-4H-1,2-oxazol-5-carbonyl]amino]-3-methyl-butyl]boronic acid]
< 10 nM	Cc1nocc1C(=O)NCC1=NOC(Cc2ccccc2)(C(=O)N[C@@H](CC(C)C)B(O)O)C1 (stereo partly drawn) [Example 120, ((1R)-1-(5-benzyl-3-((3-methylisoxazol-4-carboxamido)methyl)-4,5-dihydroisoxazol-5-carboxamido)-3-methylbutyl)boronic acid]
< 10 nM	O=C(NCC1=NOC(Cc2ccccc2)(C(=O)N[C@@H](Cc2ccccc2)B(O)O)C1)c1nccc2ccccc12 (stereo partly drawn) [Example 288, ((1R)-1-(5-benzyl-3-((isoquinolin-1-carboxamido)methyl)-4,5-dihydroisoxazol-5-carboxamido)-2-phenylethyl)boronic acid]
< 25 nM	CC(C)C[C@H](NC(=O)C1(C(F)(F)c2ccccc2)CC(CNC(=O)c2nccc3ccccc23)=NO1)B(O)O (stereo partly drawn) [Example 155, ((1R)-1-(5-(difluoro(phenyl)methyl)-3-((isoquinolin-1-carboxamido)methyl)-4,5-dihydroisoxazol-5-carboxamido)-3-methylbutyl)boronic acid]
< 25 nM	O=C(N[C@@H](Cc1ccccc1)B(O)O)C1(Cc2ccccc2)CC(COc2ccccc2)=NO1 (stereo partly drawn) [Example 255, ((1R)-1-(5-benzyl-3-(phenoxymethyl)-4,5-dihydroisoxazol-5-carboxamido)-2-phenylethyl)boronic acid]

Reference: US12570675B2, “Boronic acid compounds” (LG CHEM, LTD., priority 2020, dated 2026)
